From ChEMBL document CHEMBL3853264 (Medchemcomm, 2016)
≈ marks a conversion by molar mass, not a printed value.

Tests used:
[1] = target: T1, Solute carrier family 22 member 12 (Homo sapiens, UniProt Q96S37); assay: Inhibition of human C-terminal eGFP-tagged URAT1 long isoform expressed in CHO cells assessed as decrease in [14C]-uric acid uptake preincubated for 15 mins followed by [14C]-uric acid addition and incubated in dark for 3 hrs by scintillation counting method; type: cell-based
T1 sequence (Q96S37 whole entry): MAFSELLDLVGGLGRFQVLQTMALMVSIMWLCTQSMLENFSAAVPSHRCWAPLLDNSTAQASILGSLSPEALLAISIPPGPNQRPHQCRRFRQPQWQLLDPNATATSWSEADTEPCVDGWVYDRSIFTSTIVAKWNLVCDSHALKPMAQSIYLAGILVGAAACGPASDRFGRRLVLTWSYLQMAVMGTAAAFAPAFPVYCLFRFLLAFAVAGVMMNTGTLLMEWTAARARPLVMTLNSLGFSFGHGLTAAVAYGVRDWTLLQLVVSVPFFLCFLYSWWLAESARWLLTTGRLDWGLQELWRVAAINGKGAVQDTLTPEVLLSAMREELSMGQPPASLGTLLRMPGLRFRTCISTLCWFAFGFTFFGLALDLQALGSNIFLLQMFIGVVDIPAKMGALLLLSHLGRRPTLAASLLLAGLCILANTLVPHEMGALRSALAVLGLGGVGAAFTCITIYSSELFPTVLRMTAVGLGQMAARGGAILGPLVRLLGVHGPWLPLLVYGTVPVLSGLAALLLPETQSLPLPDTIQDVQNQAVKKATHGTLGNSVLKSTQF

[2] = system: Rattus norvegicus; assay: Toxicity in rat assessed as change in food consumption up to 300 mg/kg/day, po measured over 14 days; type: organism-based; conditions: in vivo, 336 h
[3] = target: Sodium channel protein type 9 subunit alpha (Homo sapiens, UniProt Q15858); assay: Inhibition of NaV1.7 (unknown origin) by electrophysiology assay
[4] = Average plasma concentration in rat at 300 mg/kg, po administered as single dose measured on day 14; type: ADME, organism-based; conditions: in vivo
[5] = Intrinsic clearance in rat liver microsomes; type: ADME; conditions: read-out: CLH
[6] = Intrinsic clearance in human hepatocytes assessed per 10^6 cells; type: ADME, cell-based, Hepatocyte; conditions: read-out: CLH
[7] = Drug metabolism in human liver microsomes assessed as 2-chloro-4-(2-cyano-4-(N-(5-fluoropyridin-2-yl)sulfamoyl)phenoxy)benzoic acid formation; type: ADME
[8] = system: Rattus norvegicus; assay: Toxicity in rat assessed as change in body weight up to 300 mg/kg/day, po measured over 14 days; type: organism-based; conditions: in vivo, 336 h
[9] = Plasma clearance in rat at 0.5 mg/kg, iv and 1 mg/kg, po; type: ADME, organism-based
[10] = Average plasma concentration in rat at 30 mg/kg, po administered as single dose measured on day 14; type: ADME, organism-based; conditions: in vivo
[11] = Cytotoxicity against THLE cells; type: toxicity, cell-based; conditions: human
[12] = Average plasma concentration in dog at 100 mg/kg, po administered as single dose measured on day 14; type: ADME, organism-based, Canis lupus familiaris; conditions: in vivo
[13] = Toxicity in dog assessed as emesis at 100 mg/kg/day, po measured over 14 days by histologic test; type: organism-based, Canis lupus familiaris; conditions: in vivo, 336 h
[14] = Dissociation constant, pKa of the compound; type: physicochemical
[15] = Unbound Cmax in dog at 100 mg/kg, po administered as single dose measured on day 14; type: ADME, organism-based, Canis lupus familiaris; conditions: in vivo
[16] = target: Sodium channel protein type 5 subunit alpha (Homo sapiens, UniProt Q14524); assay: Inhibition of human NaV1.5 expressed in HEK293 cells by patch clamp method; type: cell-based
[17] = target: Organic anion transporter 3 (Homo sapiens, UniProt Q8TCC7); assay: Inhibition of OAT3 (unknown origin)
[18] = system: Rattus norvegicus; assay: Toxicity in rat up to 300 mg/kg/day, po measured over 14 days by clinical chemistry study; type: organism-based; conditions: in vivo, 336 h
[19] = Drug metabolism in rat hepatocytes assessed as (2S,3S,4S,5R,6R)-6-(2-chloro-4-(2-cyano-4-(N-(5-fluoropyridin-2-yl)sulfamoyl)phenoxy)benzyloxy)-3,4,5-trihydroxytetrahydro-2H-pyran-2-carboxylic acid formation; type: ADME, cell-based, Hepatocyte
[20] = Toxicity in po dosed dog measured assessed as drug tolerance measured over 14 days; type: organism-based, Canis lupus familiaris; conditions: in vivo, 336 h
[21] = Unbound clearance in rat at 0.5 mg/kg, iv and 1 mg/kg, po; type: ADME, organism-based; conditions: in vivo
[22] = target: Cytochrome P450 2C9 (Homo sapiens, UniProt P11712); assay: Inhibition of CYP2C9 (unknown origin); type: ADME
[23] = system: P-gp; assay: Substrate activity at p-gp (unknown origin) assessed as efflux ratio of permeability; type: ADME; conditions: human, not told
[24] = Oral bioavailability in rat at 1 mg/kg; type: ADME, organism-based; conditions: in vivo
[25] = system: Rattus norvegicus; assay: Toxicity in rat up to 300 mg/kg/day, po measured over 14 days by microscopic study; type: organism-based; conditions: in vivo, 336 h
[26] = Fraction unbound in rat plasma; type: ADME, cell-free
[27] = Toxicity in dog assessed as decrease in hepatic glycogen content at 100 mg/kg/day, po measured over 14 days; type: organism-based, Canis lupus familiaris; conditions: in vivo, 336 h
[28] = Intrinsic clearance in dog liver microsomes; type: ADME, Canis lupus familiaris; conditions: read-out: CLH
[29] = system: Rattus norvegicus; assay: Toxicity in rat assessed as increase in blood pressure at 100 mg/kg/day, po measured over 14 days; type: organism-based; conditions: in vivo, 336 h
[30] = target: Solute carrier organic anion transporter family member 2B1 (Homo sapiens, UniProt O94956); assay: Drug uptake assessed as human OATP2B1-mediated drug accumulation by cell-based assay relative to wild type protein; type: ADME
Solute carrier organic anion transporter family member 2B1, sequence (O94956 whole entry): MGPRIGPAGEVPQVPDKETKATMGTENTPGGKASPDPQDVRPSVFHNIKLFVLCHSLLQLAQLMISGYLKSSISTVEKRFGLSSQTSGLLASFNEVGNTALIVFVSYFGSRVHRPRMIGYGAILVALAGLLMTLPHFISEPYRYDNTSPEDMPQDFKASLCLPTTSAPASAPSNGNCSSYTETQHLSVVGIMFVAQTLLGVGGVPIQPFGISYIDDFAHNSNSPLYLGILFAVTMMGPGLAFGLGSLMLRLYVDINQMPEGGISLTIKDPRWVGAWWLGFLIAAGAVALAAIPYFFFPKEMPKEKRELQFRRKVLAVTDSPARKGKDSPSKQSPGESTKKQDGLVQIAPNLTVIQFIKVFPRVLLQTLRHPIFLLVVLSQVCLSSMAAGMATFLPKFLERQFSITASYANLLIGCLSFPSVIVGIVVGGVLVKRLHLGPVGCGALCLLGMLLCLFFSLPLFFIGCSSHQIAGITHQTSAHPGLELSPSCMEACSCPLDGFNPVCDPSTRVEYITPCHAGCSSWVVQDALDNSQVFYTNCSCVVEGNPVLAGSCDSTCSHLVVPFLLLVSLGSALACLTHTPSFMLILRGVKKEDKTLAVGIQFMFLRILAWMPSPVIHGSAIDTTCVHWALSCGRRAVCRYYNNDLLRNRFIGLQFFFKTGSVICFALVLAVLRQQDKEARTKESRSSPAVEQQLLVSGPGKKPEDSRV

[31] = target: Voltage-gated inwardly rectifying potassium channel KCNH2 (Homo sapiens, UniProt Q12809); assay: Inhibition of human ERG by patch clamp method
[32] = Permeability in RRCK cells; type: ADME, cell-based, Canis lupus familiaris, MDCKII-LE; conditions: dog, MDCK; read-out: permeability
[33] = Fraction unbound in dog plasma; type: ADME, cell-free, Canis lupus familiaris
[34] = Volume of distribution at steady state in rat at 0.5 mg/kg, iv and 1 mg/kg, po; type: ADME, organism-based; conditions: in vivo, read-out: Vdss
[35] = Fraction unbound in human plasma; type: ADME, cell-free
[36] = Intrinsic clearance in rat hepatocytes assessed per 10^6 cells; type: ADME, cell-based, Hepatocyte; conditions: read-out: CLH
[37] = Octanol-water partition co-efficient, log D of the compound by shake flask method; type: physicochemical
[38] = system: Rattus norvegicus; assay: Toxicity in po dosed rat assessed as drug tolerance measured over 14 days; type: organism-based; conditions: in vivo, 336 h
[39] = Unbound Cmax in rat at 300 mg/kg, po administered as single dose measured on day 14; type: ADME, organism-based; conditions: in vivo
[40] = target: BCRP (ABCG2) (Homo sapiens, UniProt Q9UNQ0); assay: Substrate activity at BCRP (unknown origin) assessed as efflux ratio of permeability; type: ADME; conditions: not told
[41] = system: Rattus norvegicus; assay: Toxicity in rat up to 300 mg/kg/day, po measured over 14 days by necropsy; type: organism-based; conditions: in vivo, 336 h
[42] = Drug excretion in bile of bile duct cannulated rat; type: ADME; conditions: read-out: Drug excretion
[43] = Mutagenicity in […] by Ames test in absence of […] fraction; type: toxicity
[44] = target: Cytochrome P450 2C8 (Homo sapiens, UniProt P10632); assay: Inhibition of CYP2C8 (unknown origin); type: ADME
Cytochrome P450 2C8, sequence (P10632 whole entry): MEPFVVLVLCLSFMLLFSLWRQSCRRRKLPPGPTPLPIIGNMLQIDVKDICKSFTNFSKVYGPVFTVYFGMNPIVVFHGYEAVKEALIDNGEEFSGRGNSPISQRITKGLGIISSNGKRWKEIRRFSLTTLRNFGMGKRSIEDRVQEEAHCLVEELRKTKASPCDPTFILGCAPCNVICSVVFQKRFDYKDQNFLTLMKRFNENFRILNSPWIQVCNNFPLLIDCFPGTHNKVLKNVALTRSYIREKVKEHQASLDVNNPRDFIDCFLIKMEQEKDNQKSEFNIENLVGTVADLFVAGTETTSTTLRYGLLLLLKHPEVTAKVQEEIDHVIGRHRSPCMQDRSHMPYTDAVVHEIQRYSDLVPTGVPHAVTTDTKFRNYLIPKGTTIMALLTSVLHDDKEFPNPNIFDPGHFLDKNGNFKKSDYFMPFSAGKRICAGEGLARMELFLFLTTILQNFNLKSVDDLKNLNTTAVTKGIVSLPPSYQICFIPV

[45] = target: Cytochrome P450 1A2 (Homo sapiens, UniProt P05177); assay: Inhibition of CYP1A2 (unknown origin); type: ADME
[46] = target: Cytochrome P450 2D6 (Homo sapiens, UniProt P10635); assay: Inhibition of CYP2D6 (unknown origin); type: ADME
Cytochrome P450 2D6, sequence (P10635 whole entry): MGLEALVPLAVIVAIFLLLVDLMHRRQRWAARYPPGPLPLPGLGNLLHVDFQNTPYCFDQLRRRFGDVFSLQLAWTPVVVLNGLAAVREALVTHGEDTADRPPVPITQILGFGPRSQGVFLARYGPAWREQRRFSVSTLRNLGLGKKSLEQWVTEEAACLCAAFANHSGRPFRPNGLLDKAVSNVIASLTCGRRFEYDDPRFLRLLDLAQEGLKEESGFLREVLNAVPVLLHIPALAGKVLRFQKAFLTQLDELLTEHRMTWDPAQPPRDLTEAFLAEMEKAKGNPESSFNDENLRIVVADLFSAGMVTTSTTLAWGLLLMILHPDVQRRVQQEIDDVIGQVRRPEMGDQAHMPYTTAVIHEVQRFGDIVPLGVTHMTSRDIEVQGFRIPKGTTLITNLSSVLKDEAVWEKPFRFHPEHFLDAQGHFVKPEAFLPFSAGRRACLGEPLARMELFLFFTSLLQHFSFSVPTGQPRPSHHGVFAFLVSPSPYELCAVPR

[47] = target: Solute carrier organic anion transporter family member 1B3 (Homo sapiens, UniProt Q9NPD5); assay: Drug uptake assessed as human OATP1B3-mediated drug accumulation by cell-based assay relative to wild type protein; type: ADME
Solute carrier organic anion transporter family member 1B3, sequence (Q9NPD5 whole entry): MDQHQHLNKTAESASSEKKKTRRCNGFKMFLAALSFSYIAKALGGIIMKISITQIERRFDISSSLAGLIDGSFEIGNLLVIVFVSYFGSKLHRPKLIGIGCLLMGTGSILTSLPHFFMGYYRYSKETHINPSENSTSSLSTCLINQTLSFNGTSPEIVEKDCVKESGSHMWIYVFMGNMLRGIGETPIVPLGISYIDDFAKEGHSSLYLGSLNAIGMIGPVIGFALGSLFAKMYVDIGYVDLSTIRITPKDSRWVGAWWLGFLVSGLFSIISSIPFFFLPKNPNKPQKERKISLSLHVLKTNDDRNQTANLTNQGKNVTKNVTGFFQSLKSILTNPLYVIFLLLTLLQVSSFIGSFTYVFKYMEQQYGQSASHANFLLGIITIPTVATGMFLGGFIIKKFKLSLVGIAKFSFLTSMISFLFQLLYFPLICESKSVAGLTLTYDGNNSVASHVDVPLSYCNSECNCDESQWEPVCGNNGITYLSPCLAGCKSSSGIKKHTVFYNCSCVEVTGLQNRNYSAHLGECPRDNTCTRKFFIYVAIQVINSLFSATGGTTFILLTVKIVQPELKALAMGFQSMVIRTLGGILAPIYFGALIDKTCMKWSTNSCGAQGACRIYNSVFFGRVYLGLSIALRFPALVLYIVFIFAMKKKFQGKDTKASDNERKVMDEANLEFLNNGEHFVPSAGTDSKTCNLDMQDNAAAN

[48] = Mutagenicity in […] by Ames test in presence of […] fraction; type: toxicity
[49] = Intrinsic clearance in human liver microsomes; type: ADME; conditions: read-out: CLH
[50] = system: Rattus norvegicus; assay: Toxicity in rat assessed as hematological changes up to 300 mg/kg/day, po measured over 14 days; type: organism-based; conditions: in vivo, 336 h
[51] = Toxicity in dog assessed as salivation at 100 mg/kg/day, po measured over 14 days by histologic test; type: organism-based, Canis lupus familiaris; conditions: in vivo, 336 h
[52] = target: Solute carrier family 22 member 11 (Homo sapiens, UniProt Q9NSA0); assay: Inhibition of OAT4 (unknown origin)
Solute carrier family 22 member 11, sequence (Q9NSA0 whole entry): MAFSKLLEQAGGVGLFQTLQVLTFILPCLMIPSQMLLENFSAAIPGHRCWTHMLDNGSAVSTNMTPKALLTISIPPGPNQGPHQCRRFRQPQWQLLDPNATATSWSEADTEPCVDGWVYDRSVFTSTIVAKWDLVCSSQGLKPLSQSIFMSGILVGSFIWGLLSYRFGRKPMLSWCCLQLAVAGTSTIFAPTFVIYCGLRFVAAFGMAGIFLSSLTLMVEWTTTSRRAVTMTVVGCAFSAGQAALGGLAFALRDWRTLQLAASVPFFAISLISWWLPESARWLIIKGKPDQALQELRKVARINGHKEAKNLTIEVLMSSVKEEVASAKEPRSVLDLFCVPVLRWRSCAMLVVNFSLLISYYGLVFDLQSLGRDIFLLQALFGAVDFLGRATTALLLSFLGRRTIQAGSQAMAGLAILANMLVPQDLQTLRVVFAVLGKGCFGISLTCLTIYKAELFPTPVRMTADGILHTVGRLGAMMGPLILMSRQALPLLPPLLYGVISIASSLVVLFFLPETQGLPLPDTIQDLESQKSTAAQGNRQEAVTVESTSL

[53] = Unbound Cmax in rat at 30 mg/kg, po administered as single dose measured on day 14; type: ADME, organism-based; conditions: in vivo
[54] = target: Solute carrier organic anion transporter family member 1B1 (Homo sapiens, UniProt Q9Y6L6); assay: Drug uptake assessed as human OATP1B1-mediated drug accumulation by cell-based assay relative to wild type protein; type: ADME
Solute carrier organic anion transporter family member 1B1, sequence (Q9Y6L6 whole entry): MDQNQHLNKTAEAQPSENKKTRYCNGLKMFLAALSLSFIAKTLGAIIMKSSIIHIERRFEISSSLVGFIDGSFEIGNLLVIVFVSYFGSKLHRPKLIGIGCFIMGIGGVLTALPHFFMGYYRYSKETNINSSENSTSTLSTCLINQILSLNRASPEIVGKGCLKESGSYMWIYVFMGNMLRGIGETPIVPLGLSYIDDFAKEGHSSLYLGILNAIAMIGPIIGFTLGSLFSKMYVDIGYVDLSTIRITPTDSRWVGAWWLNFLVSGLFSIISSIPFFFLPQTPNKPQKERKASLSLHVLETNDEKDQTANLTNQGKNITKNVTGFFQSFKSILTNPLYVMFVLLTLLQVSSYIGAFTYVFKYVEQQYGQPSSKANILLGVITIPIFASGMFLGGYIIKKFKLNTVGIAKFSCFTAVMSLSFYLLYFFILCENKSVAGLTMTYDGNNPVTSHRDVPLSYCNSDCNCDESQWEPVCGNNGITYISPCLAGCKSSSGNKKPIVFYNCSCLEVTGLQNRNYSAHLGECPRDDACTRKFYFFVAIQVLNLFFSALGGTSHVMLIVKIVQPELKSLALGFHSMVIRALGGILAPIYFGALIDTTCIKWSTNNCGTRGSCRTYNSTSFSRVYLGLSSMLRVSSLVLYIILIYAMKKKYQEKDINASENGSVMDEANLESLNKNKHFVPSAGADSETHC

[55] = Intrinsic clearance in dog hepatocytes assessed per 10^6 cells; type: ADME, cell-based, Canis lupus familiaris, Hepatocyte; conditions: read-out: CLH
[56] = Toxicity in dog up to 100 mg/kg/day, po measured over 14 days by clinical pathology test; type: organism-based, Canis lupus familiaris; conditions: in vivo, 336 h
[57] = Solubility of the compound at pH 6.5; type: physicochemical; conditions: buffer
[58] = Drug metabolism in human hepatocytes assessed as 2-chloro-4-(2-cyano-4-(N-(5-fluoropyridin-2-yl)sulfamoyl)phenoxy)benzoic acid formation; type: ADME, cell-based, Hepatocyte
[59] = Toxicity in dog assessed as decrease in serum glucose at 100 mg/kg/day, po measured over 14 days; type: organism-based, Canis lupus familiaris; conditions: in vivo, 336 h
[60] = Toxicity in dog up to 100 mg/kg/day, po measured over 14 days by histologic test; type: organism-based, Canis lupus familiaris; conditions: in vivo, 336 h
[61] = Inhibition of GABAA receptor (unknown origin); design: species or system Homo sapiens
[62] = system: Rattus norvegicus; assay: Cardiovascular toxicity in rat up to 30 mg/kg/day, po measured over 14 days; type: organism-based; conditions: in vivo, 336 h
[63] = target: Solute carrier family 22 member 6 (Homo sapiens, UniProt Q4U2R8); assay: Inhibition of OAT1 (unknown origin)
Solute carrier family 22 member 6, sequence (Q4U2R8 whole entry): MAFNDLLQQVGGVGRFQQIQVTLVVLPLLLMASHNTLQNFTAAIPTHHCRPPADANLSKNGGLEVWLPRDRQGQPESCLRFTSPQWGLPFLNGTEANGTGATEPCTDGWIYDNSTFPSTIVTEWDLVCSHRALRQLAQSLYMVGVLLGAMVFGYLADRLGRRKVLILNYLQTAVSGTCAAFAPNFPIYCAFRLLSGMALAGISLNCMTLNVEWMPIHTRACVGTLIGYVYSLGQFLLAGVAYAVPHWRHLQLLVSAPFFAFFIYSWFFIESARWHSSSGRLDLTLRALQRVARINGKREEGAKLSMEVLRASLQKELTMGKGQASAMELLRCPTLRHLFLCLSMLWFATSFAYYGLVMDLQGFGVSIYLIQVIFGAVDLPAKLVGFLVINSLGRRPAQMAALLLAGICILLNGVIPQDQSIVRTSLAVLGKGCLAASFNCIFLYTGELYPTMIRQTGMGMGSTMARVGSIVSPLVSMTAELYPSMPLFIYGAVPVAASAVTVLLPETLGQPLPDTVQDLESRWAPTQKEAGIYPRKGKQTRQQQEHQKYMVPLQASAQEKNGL

[64] = Half life in rat at 0.5 mg/kg, iv and 1 mg/kg, po; type: ADME, organism-based; conditions: in vivo
[65] = target: Cytochrome P450 2C19 (Homo sapiens, UniProt P33261); assay: Inhibition of CYP2C19 (unknown origin); type: ADME
Cytochrome P450 2C19, sequence (P33261 whole entry): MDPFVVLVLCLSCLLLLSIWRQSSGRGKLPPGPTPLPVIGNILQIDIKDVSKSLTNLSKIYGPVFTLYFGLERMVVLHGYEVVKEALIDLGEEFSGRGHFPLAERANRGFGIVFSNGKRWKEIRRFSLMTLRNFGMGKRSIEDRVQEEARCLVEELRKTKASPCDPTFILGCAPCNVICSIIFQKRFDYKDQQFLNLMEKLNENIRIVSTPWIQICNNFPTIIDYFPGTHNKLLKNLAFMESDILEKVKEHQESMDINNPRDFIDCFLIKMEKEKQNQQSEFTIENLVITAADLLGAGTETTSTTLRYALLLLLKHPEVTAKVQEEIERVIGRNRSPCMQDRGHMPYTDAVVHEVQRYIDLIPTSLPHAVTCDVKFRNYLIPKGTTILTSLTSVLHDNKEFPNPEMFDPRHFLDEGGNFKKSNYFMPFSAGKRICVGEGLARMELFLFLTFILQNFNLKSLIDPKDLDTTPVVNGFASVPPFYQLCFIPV

[66] = system: Rattus norvegicus; assay: Toxicity in rat assessed as change in organ weight up to 300 mg/kg/day, po measured over 14 days; type: organism-based; conditions: in vivo, 336 h
[67] = target: Cytochrome P450 3A4 (Homo sapiens, UniProt P08684); assay: Inhibition of CYP3A4 (unknown origin); type: ADME
[68] = target: T1, Solute carrier family 22 member 12; assay: Inhibition of URAT1 (unknown origin)

N#Cc1ccc(Oc2ccc(S(=O)(=O)Nc3ccc(F)cn3)c(F)c2)cc1F
IC50 [1]: 0.037 µM

N#Cc1cc(S(=O)(=O)Nc2ccc(F)cn2)ccc1Oc1ccc(CO)c(Cl)c1
Activity [2]: Non-Toxic
IC50 [3]: > 30 µM
Cave [4]: 240 nM
microsomal CLint [5]: < 14 µL/min/mg
hepatocyte CLint [6]: 23 µL/min/1e6 cells
Drug metabolism [7]: Metabolite_Detected
Activity [8]: Non-Toxic
clearance [9]: 1.3 mL/min/kg
Cave [10]: 43 nM
Activity [11]: 105 µM
Cave [12]: 1019 nM
Activity [13]: Toxic
pKa [14]: 5.7
fCmax [15]: 3.905 µM
IC50 [16]: > 30 µM
IC50 [17]: 0.5 µM
Activity [18]: Non-Toxic
Drug metabolism [19]: Metabolite_Detected
Activity [20]: <= 100 mg/kg/day
CL free [21]: 93 mL/min/kg
IC50 [22]: 2 µM
efflux ratio [23]: 1.9
bioavailability [24]: 50%
Activity [25]: Non-Toxic
fraction unbound [26]: 0.0043
Activity [27]: Toxic
microsomal CLint [28]: < 18 µL/min/mg
Activity [29]: Non-Toxic
fold change (FC) [30]: 1.48
IC50 [31]: > 100 µM
Papp [32]: 12 ×10⁻⁶ cm/s
fraction unbound [33]: 0.014
Vd [34]: 0.27 L/kg
fraction unbound [35]: 0.0083
hepatocyte CLint [36]: 82 µL/min/1e6 cells
logD [37]: 2.1
Activity [38]: <= 300 mg/kg/day
fCmax [39]: 537 nM
efflux ratio [40]: 34
Activity [41]: Non-Toxic
dose excreted [42]: 10%
Activity [43]: Non-Toxic
IC50 [44]: 9.9 µM
IC50 [45]: > 30 µM
IC50 [46]: > 30 µM
fold change (FC) [47]: 1.124
Activity [48]: Non-Toxic
microsomal CLint [49]: < 10 µL/min/mg
Activity [50]: Non-Toxic
Activity [51]: Toxic
IC50 [52]: 15 µM
fCmax [53]: 98 nM
fold change (FC) [54]: 1.181
hepatocyte CLint [55]: < 6 µL/min/1e6 cells
Activity [56]: Non-Toxic
solubility [57]: 15.3 µM (≈ 6.64 µg/mL)
Drug metabolism [58]: Metabolite_Detected
Activity [59]: Toxic
Activity [60]: Non-Toxic
Ki [61]: > 10 µM
Activity [62]: Non-Toxic
IC50 [63]: 14.3 µM
half-life [64]: 3.9 h
IC50 [65]: 17.5 µM
Activity [66]: Non-Toxic
IC50 [67]: > 30 µM

CC(C)(Sc1ccncc1-c1ccc(C#N)c2ccccc12)C(=O)O
IC50 [68]: 0.023 µM
